In patent US12357636B2 (Urovant Sciences GmbH, priority 2018, dated 2025):

Tests used:
[1] = test system: men and women with overactive bladder; assay: Phase 3 study vibegron 75 mg: post-void residual urine volume (Tables 26-28); format: in vivo, human
Excerpt: The risk of acute urinary retention or morbidities related to an increase in Post-Void Residual (PVR) is a concern with antimuscarinic therapy that promotes smooth muscle relaxation by inhibiting acetylcholine-induced smooth muscle contraction. If, during contraction, the bladder cannot generate enough pressure to overcome the outlet resistance in the urethra, either because of poor detrusor contractility or profound obstruction (most commonly from BPH), acute urinary retention or incomplete emptying of the bladder may result.
The volume of urine that remains in the bladder after voiding (PVR) is an objective measurement that may serve as a proxy for impaired ability to void.
PVR were performed via ultrasound at the visits indicated in the Schedule of Activities.
In addition, the data on the Post Void Residual Urine Volume (PVR) in all males and males with a medical history of BPH is shown in Tables 26 and 27, respectively.

[2] = test system: men and women with overactive bladder; assay: Phase 3 study vibegron 75 mg vs placebo and tolterodine, 12 weeks, OAB: efficacy (Tables 21-25); format: in vivo, human
Protocol: Enrollment of patients included individuals with OAB Wet (those with UUI, the involuntary loss of urine accompanied by urgency) and OAB Dry (those without UUI). A total of 1,518 patients were randomized across 215 study sites into one of three groups for a 12-week treatment period.
The study consisted of a Screening Period (1 to 5 weeks), a single-blind Run-in Period (2 weeks), a randomized double-blind Treatment Period (12 weeks), and a Follow-up Period (4 weeks).
Tolterodine ER 4 mg was the active control. […] Between the Baseline and Week 12 Visits, patients had study assessments at Week 4 and Week 8.
For the analysis of the co-primary endpoints (change from baseline in average number of daily micturitions at Week 12 and change from baseline in average number of daily urge urinary incontinence episodes at Week 12, and placebo adjustment of each), a mixed model for repeated measure (MMRM) with restricted maximum likelihood estimation was used. This model corrects for dropout and accounts for the fact that measurements taken on the same patient over time tend to be correlated by using all available information on patients within the same covariate set to derive an estimate of the treatment effect for a dropout-free population. The analysis model for each efficacy endpoint includes terms for treatment, visit, OAB Type (Wet vs Dry), Sex (Female vs Male), Region (US vs Rest of World), baseline score, and interaction of visit by treatment.
Primary inferences were drawn from treatment differences for the changes from baseline derived from the MMRM models at Week 12. As part of secondary objectives, the treatment differences for each post baseline visit were also derived using the same MMRM model.
An unstructured covariance matrix was used to model the correlation among repeated measurements. The Kenward-Roger adjustment was used with restricted (or residual) maximum likelihood (REML) to make statistical inference. If the unstructured covariance model fails to converge with the default Newton-Raphson algorithm, the Fisher scoring algorithm or other appropriate methods can be used to provide initial values of the covariance parameters. In the rare event that none of the above methods yield convergence, a structured covariance would be used to model the correlation among repeated measurements.
The change from baseline efficacy endpoints was analyzed using the same MMRM model described for co-primary endpoints.
Analysis of the efficacy endpoints of proportion of patients with at least 75% reduction in the average number of daily UUI episodes at Week 12 and proportion of patients with 50% reduction in the average number of daily urgency episodes at Week 12 was analyzed using the Cochran-Mantel-Haenszel risk difference estimate. Missing Week 12 data was analyzed using multiple imputation. The estimated difference in the proportion of responders and 95% confidence interval for the difference was calculated using the Cochran-Mantel-Haenszel risk difference estimate stratified by OAB Type (Wet vs Dry) and Sex (Female vs Male), with weights proposed by Greenland and Robins.
The same statistical methods that were used to analyze the co-primary and secondary efficacy endpoints were used for the exploratory analyses. Exploratory responder analyses were analyzed using the same Cochran-Mantel-Haenszel model as described above for secondary endpoints.

[3] = human plasma protein binding; format: in vitro ADME
[4] = test system: men and women with overactive bladder; assay: Phase 3 study vibegron 75 mg: safety and tolerability; format: in vivo, human; settings: 75 mg QD, 12 weeks
Protocol: Safety analyses were conducted using the SAF and summarized by treatment group as treated. The treatment-emergent period is defined as the period of time from the first dose date of the double blinded Study Treatment through 28 days after the last dose of Study Treatment, or the date of initiation of another investigational agent or surgical intervention or rollover to the extension study, whichever occurs first. Safety was assessed through summaries of adverse events, the frequency of treatment discontinuations due to adverse events, and clinical laboratory evaluations.

men and women with OAB = assay: Phase 2b study in OAB: efficacy (voiding diary); format: in vivo, human; settings: OAB Wet
Excerpt: Part 2 was designed to continue to assess the safety and efficacy of concomitant dosing. […] Subjects in both Part 1 and Part 2 had the option of enrolling in a 1-year extension. Participants were required to keep a voiding diary, recording the occurrence of each strong urge, total incontinence, and urge incontinence episode. Efficacy data for Part 1 and Part 2 are summarized herein.
The total number of urgency incontinence episodes must have exceeded the total number of stress incontinence episodes for all subjects.
Conversely, a dose dependent effect on urge incontinence or total incontinence was not observed.

[5] = multiple rising dose Phase 1 pharmacokinetics; format: in vivo, human
Excerpt: Although exposures were similar in middle-aged males when compared to young males, plasma concentrations were higher in elderly compared to middle-aged and young subjects.

[6] = effect of food on oral absorption; format: in vivo, human
[7] = drug interaction: effect of ketoconazole, diltiazem or tolterodine on vibegron PK; format: in vivo, human
Excerpt: However, these interactions are not expected to be clinically significant.

[8] = Males with medical history of BPH
[9] = all males, vibegron 75 mg or tolterodine ER 4 mg QD
[10] = 150 mg multiple doses, Day 14, middle-aged females
[11] = single 50 mg, Japanese young males
[12] = single 50 mg, non-Japanese young males
[13] = multiple doses of 240 mg or 180 mg diltiazem, vibegron 100 mg

With `O=C(Nc1ccc(C[C@@H]2CC[C@H]([C@H](O)c3ccccc3)N2)cc1)[C@@H]1CCc2nccc(=O)n21` [Vibegron, (6S)—N-[4-[[(2S,5R)-5-[(R)-hydroxy(phenyl)methyl]pyrrolidin-2-yl]methyl]phenyl]-4-oxo-7,8-dihydro-6H-pyrrolo[1,2-a]pyrimidine-6-carboxamide] as the compound, how does the “PVR Categories at Week 12: <100 mL” value [1, 8] read?
Its value is 96.6%.

What about the “PVR Categories at Week 12: ≥100 mL to <200 mL” value [1, 8] of the same compound?
Its value is 0%.

What about the “PVR Categories at Week 12: ≥200 mL to <350 mL” value [1, 8] of the same compound?
The value was 3.4%.

What about the “PVR Categories at Week 12: ≥350 mL” value [1, 8] of the same compound?
Its value is 0%.

What about the “PVR Mean Change from Baseline at Week 12 (SD)” value (from here on “PVR Mean Change … (SD)”) [1, 8] of the same compound?
The value was −3.4 (42.45) mL.

What about the “PVR Mean Change … (SD)” value [1, 9] of the same compound?
Its value is 2.2 (48.45) mL.

And the “PVR category <100 mL at Week 12” value [1, 9]?
Its value is 89.7%.

And the “PVR category ≥100 mL to <200 mL at Week 12” value [1, 9]?
Its value is 7.7%.

And the “PVR category ≥200 mL to <350 mL at Week 12” value [1, 9]?
Its value is 2.6%.

And the “PVR category ≥350 mL at Week 12” value [1, 9]?
Its value is 0.

What about the “PVR Categories at Week 12: <100 mL” value ([1]; study population as a whole) of the same compound?
Its value is 89.9%.

And the “PVR Categories at Week 12: ≥100 mL to <200 mL” value ([1]; study population as a whole)?
Its value is 3.5%.

What about the “PVR Categories at Week 12: ≥200 mL to <350 mL” value ([1]; study population as a whole) of the same compound?
Its value is 0.6%.

What about the “PVR Categories at Week 12: ≥350 mL” value ([1]; study population as a whole) of the same compound?
Its value is 0%.

And the “PVR Mean Change … (SD)” value ([1]; study population as a whole)?
Its value is 0.4 (38.27) mL.

And the “total incontinence episodes vs baseline” value ([2]; 75 mg QD, 12 weeks)?
The value was “reduced by half”.

What about the “Micturitions: Week 12 CFB Mean” value ([2]; Males with BPH, descriptive statistics) of the same compound?
The value was −1.50.

What about the “OAB-q Coping Score, Week 12 LS Mean Change from Baseline (Placebo-Adjusted)” value ([2]; Week 12, key secondary endpoint, once-daily vibegron 75 mg or tolterodine) of the same compound?
The value was 3.6.

And the “bound to human plasma proteins” value [3]?
Its value is “approximately 49%”.

What about the tolerability [4] of the same compound?
The tolerability was “favorable”.

What about the “Urgency Incontinence Episodes daily number, Week 8 mean” value (men and women with OAB; vibegron 15 mg QD) of the same compound?
The value was 1.12.

And the “Total Incontinence Episodes daily number, Week 8 mean” value (men and women with OAB; vibegron 100 mg QD)?
The value was 1.12.

What about the “steady state Cmax, elderly compared to young males” value ([5]; 100 mg QD) of the same compound?
The value was about 1.3 fold.

What about the “fe0-24hr, ss” value ([5]; 100 mg, elderly subjects) of the same compound?
The value was about 17%.

What about the AUC0-24 ([5]; 200 mg multiple dose, day 14, healthy young males) of the same compound?
The AUC0-24 was 3200 ± 1120 ng·h/mL.

What about the “fe0-24hr, ss” value ([5]; 100 and 150 mg, young males) of the same compound?
The value was about 14%.

What about the “steady state exposure (AUC0-24) higher in elderly Japanese than elderly non-Japanese” value ([5]; Day 14) of the same compound?
Its value is 35%.

What about the “Cmax increase in elderly Japanese compared to elderly non-Japanese” value ([5]; in vivo) of the same compound?
The value was 82%.

What about the “higher Cmax in elderly and females than healthy young males” value ([5]; in vivo) of the same compound?
The value was 50-70%.

And the “steady state AUC, middle-aged females compared to middle-aged males” value ([5]; in vivo)?
The value was about 1.5 fold.

What about the “steady state exposures higher in Japanese than non-Japanese young males” value ([5]; in vivo) of the same compound?
Its value is about 30%.

And the “time to steady state” value ([5]; once daily dosing)?
The value was at most 7 days.

What about the “exposure (AUC) higher in females compared with males” value ([5]; regardless of age) of the same compound?
Its value is 50%.

And the “mean Cmax with food compared to fasted state” value ([6]; 150 mg multiple doses, Day 1)?
The value was 59%.

And the “mean AUC0-24 with food compared to fasted state” value ([6]; 150 mg multiple doses, Day 1, middle-aged and elderly females)?
Its value is about 42%.

What about the “mean AUC0-24 with food compared to fasted state” value ([6]; 150 mg multiple doses, Day 14) of the same compound?
The value was about 20%.

And the “mean Cmax with food compared to fasted state” value ([6]; 150 mg multiple doses, Day 14)?
The value was 43%.

And the “reduction in mean AUC0-24hr with food vs fasted” value [6, 10]?
The value was 20%.

What about the “reduction in mean Cmax with food vs fasted” value [6, 10] of the same compound?
Its value is 47%.

And the Tmax ([6]; male, human, plasma, oral, single 50 mg, non-Japanese young males, read-out: delay in Tmax with high-fat meal)?
Its Tmax is about 1 h.

And the “reduction in AUC0-inf with standard Japanese breakfast” value [6, 11]?
Its value is 37%.

What about the “reduction in Cmax with standard Japanese breakfast” value [6, 11] of the same compound?
The value was 52%.

And the “reduction in AUC0-inf with high-fat meal vs fasted” value [6, 12]?
Its value is 46%.

What about the “reduction in Cmax with high-fat meal vs fasted” value [6, 12] of the same compound?
The value was 67%.

What about the “effect of tolterodine ER 4 mg on the pharmacokinetics of vibegron” value ([7]; in vivo) of the same compound?
The value was “no effect”.

And the “GM AUC0-inf increase with diltiazem” value [7, 13]?
The value was 63%.

And the “GM Cmax increase with diltiazem” value [7, 13]?
Its value is 68%.
